Test results: the NIST ThermoML archive (doi:10.1021/acs.jced.9b00560)
Numbers after ± are expanded uncertainties.

How the values were obtained:
[1] = Crystal; DSC
[2] = Molar enthalpy of transition or fusion; details: Crystal; DSC

O=C1C=CC(=O)N1c1ccccc1Br [1-(2-bromophenyl)-pyrrole-2,5-dione]
Triple point temperature [1]: 357.24 ± 1.2 K | Molar enthalpy of transition or fusion [2]: 4.57 ± 0.215 kcal/mol
